Numbers after ± are expanded uncertainties.
What was measured:
[1] = Crystal; DTA
[2] = Molar enthalpy of transition or fusion; details: Crystal; DSC

- Normal melting temperature [1]: 272.03 ± 1.1 °C
- Molar enthalpy of transition or fusion [2]: 28.9 ± 1.8 kJ/mol
SMILES: Cn1c(=O)c2[nH]cnc2n(C)c1=O [3,7-dihydro-1,3-dimethyl-1H-purine-2,6-dione]
